Results on 19 compounds are retold here after ChEMBL document CHEMBL1909046, “DrugMatrix in vitro pharmacology data”.

A short description of series [1]: DRUGMATRIX: Sigma2 radioligand binding (ligand: [3H] Ifenprodil). In kind it is cell membranes, Rattus norvegicus, Wistar, Brain, Membrane. As to conditions: Not Active = under 50% inhibition at 10 µM; for pIC50: read-out: IC50; for pKi: read-out: Ki.
For a further series, the target named is Substance-P receptor (Homo sapiens, UniProt P25103). In kind it is cell membranes, CHO, Membrane. As to conditions: cho. Note: in other assays of this panel Not Active means under 50% inhibition at 10 µM.
For series [2], the target named is Vascular endothelial growth factor receptor 1 (Homo sapiens, UniProt P17948). In kind it is cell-based. Conditions: huvec. Note: in other assays of this panel Not Active means under 50% inhibition at 10 µM.
For the next series, the target named is T1, Endothelin-1 receptor (Homo sapiens, UniProt P25101). Note: in other assays of this panel Not Active means under 50% inhibition at 10 µM.
T1 sequence (P25101 whole entry): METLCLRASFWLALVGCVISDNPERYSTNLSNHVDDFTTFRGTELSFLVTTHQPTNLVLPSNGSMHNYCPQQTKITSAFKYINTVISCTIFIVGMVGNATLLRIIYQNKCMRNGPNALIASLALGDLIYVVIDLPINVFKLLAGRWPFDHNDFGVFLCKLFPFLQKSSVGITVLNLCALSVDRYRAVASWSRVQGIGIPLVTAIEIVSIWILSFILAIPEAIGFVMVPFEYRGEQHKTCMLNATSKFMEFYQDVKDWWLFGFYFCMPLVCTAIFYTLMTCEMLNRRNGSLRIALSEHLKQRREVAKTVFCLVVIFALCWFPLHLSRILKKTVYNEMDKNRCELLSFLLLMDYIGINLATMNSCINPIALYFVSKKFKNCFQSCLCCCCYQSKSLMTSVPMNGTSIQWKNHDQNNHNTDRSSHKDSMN
In kind it is cell membranes, CHO-K1, Membrane. As to conditions: cho-k1.

Series [3] can be described thus: DRUGMATRIX: Phosphodiesterase PDE3 enzyme inhibition (substrate: [3H]cAMP + cAMP). Conditions: platelet; Not Active = under 50% inhibition at 10 µM. In kind it is tissue-based, Homo sapiens.
The target in series [4] is Mitogen-activated protein kinase 14 (Homo sapiens, UniProt Q16539). Also noted: species or system Escherichia coli.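 Note: inhibition of p38alpha enzyme activity in a biochemical kinase assay, with myelin basic protein serving as substrate; in other assays of this panel Not Active means under 50% inhibition at 10 µM.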
A further series deals with Acetylcholinesterase (Homo sapiens, UniProt P22303). Put plainly: DRUGMATRIX: Acetylcholinesterase enzyme inhibition (substrate: acetylthiocholine). The series is classed as cell-based, HEK293. As to conditions: Not Active = under 50% inhibition at 10 µM; for IC50: hek293.
In another series the target is Cytochrome P450 2C9 (Homo sapiens, UniProt P11712). As to conditions: bti-tn-5b1-4. Note: in other assays of this panel Not Active means under 50% inhibition at 10 µM.

Molecules are shown by their SMILES. pIC50, pKi: −log10 of the molar value.

Vascular endothelial growth factor receptor 1, sequence (P17948 whole entry): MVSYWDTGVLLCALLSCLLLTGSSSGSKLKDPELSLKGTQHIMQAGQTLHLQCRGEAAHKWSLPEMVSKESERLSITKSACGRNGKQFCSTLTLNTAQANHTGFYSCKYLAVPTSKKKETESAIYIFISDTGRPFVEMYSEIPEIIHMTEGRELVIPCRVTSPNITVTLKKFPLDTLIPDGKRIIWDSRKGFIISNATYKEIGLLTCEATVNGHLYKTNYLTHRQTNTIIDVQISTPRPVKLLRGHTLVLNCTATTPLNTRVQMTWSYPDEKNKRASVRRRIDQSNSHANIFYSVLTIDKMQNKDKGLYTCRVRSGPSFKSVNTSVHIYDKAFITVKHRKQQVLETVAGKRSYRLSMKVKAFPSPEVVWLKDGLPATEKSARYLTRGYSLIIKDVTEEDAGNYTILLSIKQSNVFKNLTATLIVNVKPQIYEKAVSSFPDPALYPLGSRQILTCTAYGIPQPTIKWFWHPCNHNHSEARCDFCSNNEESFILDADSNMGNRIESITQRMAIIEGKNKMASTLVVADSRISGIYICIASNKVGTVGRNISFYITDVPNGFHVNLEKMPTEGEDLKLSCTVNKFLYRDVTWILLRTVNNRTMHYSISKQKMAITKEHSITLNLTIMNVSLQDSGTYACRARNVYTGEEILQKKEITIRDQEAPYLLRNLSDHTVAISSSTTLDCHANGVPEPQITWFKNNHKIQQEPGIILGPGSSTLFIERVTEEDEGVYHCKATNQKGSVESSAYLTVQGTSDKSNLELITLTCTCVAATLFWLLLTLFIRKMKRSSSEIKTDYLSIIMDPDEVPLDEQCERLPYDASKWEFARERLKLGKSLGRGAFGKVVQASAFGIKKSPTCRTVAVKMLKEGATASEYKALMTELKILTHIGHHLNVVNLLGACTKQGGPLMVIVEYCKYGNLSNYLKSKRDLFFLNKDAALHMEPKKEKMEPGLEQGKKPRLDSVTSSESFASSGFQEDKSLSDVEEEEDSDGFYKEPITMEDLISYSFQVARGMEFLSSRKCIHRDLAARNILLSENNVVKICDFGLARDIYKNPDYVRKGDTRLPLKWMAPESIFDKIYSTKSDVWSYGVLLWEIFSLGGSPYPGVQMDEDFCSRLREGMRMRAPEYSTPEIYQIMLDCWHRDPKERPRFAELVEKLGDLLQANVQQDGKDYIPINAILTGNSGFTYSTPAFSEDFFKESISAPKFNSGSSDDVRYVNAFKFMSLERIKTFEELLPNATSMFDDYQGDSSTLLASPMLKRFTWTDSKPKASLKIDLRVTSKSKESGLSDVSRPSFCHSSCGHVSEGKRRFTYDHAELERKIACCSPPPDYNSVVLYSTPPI
Substance-P receptor, sequence (P25103 whole entry): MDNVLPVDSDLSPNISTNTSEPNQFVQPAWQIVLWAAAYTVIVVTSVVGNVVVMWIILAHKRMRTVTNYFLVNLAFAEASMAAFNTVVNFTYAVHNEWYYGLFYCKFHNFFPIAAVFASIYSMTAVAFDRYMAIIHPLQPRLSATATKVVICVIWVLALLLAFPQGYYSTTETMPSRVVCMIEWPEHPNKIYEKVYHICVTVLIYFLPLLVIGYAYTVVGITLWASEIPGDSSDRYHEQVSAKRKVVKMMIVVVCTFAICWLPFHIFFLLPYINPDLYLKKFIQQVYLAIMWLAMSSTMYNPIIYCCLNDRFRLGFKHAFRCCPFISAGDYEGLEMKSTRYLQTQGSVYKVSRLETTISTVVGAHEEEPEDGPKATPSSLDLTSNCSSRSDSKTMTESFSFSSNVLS
Cytochrome P450 2C9, sequence (P11712 whole entry): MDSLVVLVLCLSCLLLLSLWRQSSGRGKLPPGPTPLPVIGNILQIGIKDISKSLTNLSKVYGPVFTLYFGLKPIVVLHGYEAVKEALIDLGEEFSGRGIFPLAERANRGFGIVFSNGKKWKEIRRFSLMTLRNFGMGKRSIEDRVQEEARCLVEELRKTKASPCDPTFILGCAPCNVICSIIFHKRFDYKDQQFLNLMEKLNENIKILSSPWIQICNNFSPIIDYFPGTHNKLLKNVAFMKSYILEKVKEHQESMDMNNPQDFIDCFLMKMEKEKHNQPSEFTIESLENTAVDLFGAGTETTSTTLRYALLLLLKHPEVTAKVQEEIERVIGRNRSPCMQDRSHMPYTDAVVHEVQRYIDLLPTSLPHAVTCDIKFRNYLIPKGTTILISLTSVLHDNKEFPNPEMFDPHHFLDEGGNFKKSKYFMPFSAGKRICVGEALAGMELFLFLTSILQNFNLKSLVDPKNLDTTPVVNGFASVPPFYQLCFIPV
Acetylcholinesterase, sequence (P22303 whole entry): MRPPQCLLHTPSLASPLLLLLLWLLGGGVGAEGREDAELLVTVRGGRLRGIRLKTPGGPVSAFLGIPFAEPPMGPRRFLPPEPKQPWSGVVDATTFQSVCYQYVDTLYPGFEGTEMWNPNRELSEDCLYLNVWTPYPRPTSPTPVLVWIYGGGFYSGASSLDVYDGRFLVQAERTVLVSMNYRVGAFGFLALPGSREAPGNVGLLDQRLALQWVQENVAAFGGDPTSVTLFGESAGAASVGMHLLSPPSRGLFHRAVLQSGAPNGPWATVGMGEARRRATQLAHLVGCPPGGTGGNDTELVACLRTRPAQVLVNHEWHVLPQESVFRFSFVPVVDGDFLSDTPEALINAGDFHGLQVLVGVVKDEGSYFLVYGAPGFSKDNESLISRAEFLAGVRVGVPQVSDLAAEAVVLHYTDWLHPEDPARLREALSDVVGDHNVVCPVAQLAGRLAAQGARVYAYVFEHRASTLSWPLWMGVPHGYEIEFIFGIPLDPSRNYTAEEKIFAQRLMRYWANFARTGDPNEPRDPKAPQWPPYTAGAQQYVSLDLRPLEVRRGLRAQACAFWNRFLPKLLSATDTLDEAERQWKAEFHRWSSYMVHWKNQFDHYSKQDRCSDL
Mitogen-activated protein kinase 14, sequence (Q16539 whole entry): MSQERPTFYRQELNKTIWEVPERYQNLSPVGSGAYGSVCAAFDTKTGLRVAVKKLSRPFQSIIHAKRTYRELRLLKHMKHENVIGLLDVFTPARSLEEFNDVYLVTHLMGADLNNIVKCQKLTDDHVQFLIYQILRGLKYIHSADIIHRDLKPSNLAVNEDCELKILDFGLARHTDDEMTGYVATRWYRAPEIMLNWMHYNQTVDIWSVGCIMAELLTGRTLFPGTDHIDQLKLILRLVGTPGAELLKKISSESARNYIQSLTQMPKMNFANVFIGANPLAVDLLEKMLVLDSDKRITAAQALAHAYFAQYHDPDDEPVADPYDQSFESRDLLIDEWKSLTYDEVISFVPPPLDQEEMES

On to `CC(C)CN(C[C@@H](O)[C@H](Cc1ccccc1)NC(=O)O[C@H]1CCOC1)S(=O)(=O)c1ccc(N)cc1`, for which the IC50 entry (in series [1]; against Substance-P receptor; in series [2]; at Endothelin-1 receptor; in series [3]; in series [4]) was “Not Active” in each case. Also, the IC50 result at Acetylcholinesterase and against Cytochrome P450 2C9 was “Not Active” throughout. Moreover, the Ki result (in series [1]; in series [3]; at Cytochrome P450 2C9) was “Not Active” throughout.
On to `c1ccc(Nc2ccc(Nc3ccccc3)cc2)cc1`, for which the IC50 entry (in series [1]; against Substance-P receptor; in series [2]; on Endothelin-1 receptor; in series [3]; in series [4]) was “Not Active” each time. The IC50 entry on Acetylcholinesterase and against Cytochrome P450 2C9 was “Not Active” in each case. The Ki result (in series [1]; in series [3]; on Cytochrome P450 2C9) was “Not Active” throughout.
As for `COc1cc2c3cc1Oc1cc(ccc1O)C[C@@H]1c4c(cc(OC)c(O)c4Oc4ccc(cc4)C[C@@H]3N(C)CC2)CC[N+]1(C)C.[Cl-]`, the IC50 entry (in series [1]; at Substance-P receptor; in series [2]; on Endothelin-1 receptor; in series [3]; in series [4]) was “Not Active” each time. Moreover, the IC50 entry on Acetylcholinesterase and at Cytochrome P450 2C9 was “Not Active” each time. Besides, the Ki result (in series [1]; in series [3]; at Cytochrome P450 2C9) was “Not Active” throughout.
As for `NC(=O)N1c2ccccc2CCc2ccccc21`, the IC50 entry (in series [1]; at Substance-P receptor; in series [2]; against Endothelin-1 receptor; in series [3]; in series [4]) was “Not Active” each time. For the same compound, the IC50 entry on Acetylcholinesterase and at Cytochrome P450 2C9 was “Not Active” each time. Further, the Ki entry (in series [1]; in series [3]; at Cytochrome P450 2C9) was “Not Active” each time.
With `O=C1CC[C@@H](N2C(=O)c3ccccc3C2=O)C(=O)N1`, the IC50 result (in series [1]; at Substance-P receptor; in series [2]; against Endothelin-1 receptor; in series [3]; in series [4]) was “Not Active” in each case. In addition, the IC50 result on Acetylcholinesterase and at Cytochrome P450 2C9 was “Not Active” in each case. The Ki entry (in series [1]; in series [3]; on Cytochrome P450 2C9) was “Not Active” each time.
Take `Cc1onc(O)c1CC(N)C(=O)O` (racemic) [(R,S)-AMPA]: the IC50 entry (in series [1]; against Substance-P receptor; in series [2]; at Endothelin-1 receptor; in series [3]; in series [4]) was “Not Active” in each case. In addition, the IC50 entry against Acetylcholinesterase and on Cytochrome P450 2C9 was “Not Active” each time. In addition, the Ki entry (in series [1]; in series [3]; at Cytochrome P450 2C9) was “Not Active” in each case.
For `CN(C)c1nc(N(C)C)nc(N(C)C)n1` [ALTRETAMINE], the IC50 result (in series [1]; against Substance-P receptor; in series [2]; against Endothelin-1 receptor; in series [3]; in series [4]) was “Not Active” in each case. Moreover, at Acetylcholinesterase, the IC50 result is “Not Active”. Besides, the Ki result in series [1] and in series [3] was “Not Active” in each case.
For `Nc1c(Br)cc(Br)cc1CN[C@H]1CC[C@H](O)CC1` [AMBROXOL], the IC50 result (in series [1]; on Substance-P receptor; in series [2]; at Endothelin-1 receptor; in series [3]; in series [4]) was “Not Active” in each case. Moreover, on Acetylcholinesterase, the IC50 entry is “Not Active”. The Ki entry in series [1] and in series [3] was “Not Active” throughout.
In general, pIC50 refers to the IC50 on a negative log10 scale, so that one unit is a factor of ten. Broadly, the pKi is the negative decadic logarithm of the Ki, by convention in mol/L. With `CN(C)CCCN1c2ccccc2Sc2ccc(Cl)cc21` [CHLORPROMAZINE], in series [1], the negative logarithm of the IC50 (pIC50) is 5.57. In addition, the pKi in series [1] is 5.78. Moreover, the IC50 entry (on Substance-P receptor; in series [2]; against Endothelin-1 receptor; in series [3]; in series [4]; against Acetylcholinesterase) was “Not Active” in each case. The Ki entry in series [3] is “Not Active”.
On to `CC(C)(Oc1ccc(Cl)cc1)C(=O)O` [CLOFIBRIC ACID], for which the IC50 result (in series [1]; on Substance-P receptor; in series [2]; against Endothelin-1 receptor; in series [3]; in series [4]) was “Not Active” in each case. Moreover, the IC50 entry against Acetylcholinesterase is “Not Active”. Besides, the Ki result in series [1] and in series [3] was “Not Active” in each case.
In the case of `Cc1cc(C(C#N)c2ccc(Cl)cc2)c(Cl)cc1NC(=O)c1cc(I)cc(I)c1O` (stereo not drawn) [CLOSANTEL], the IC50 entry (in series [1]; against Substance-P receptor; in series [2]; against Endothelin-1 receptor; in series [3]) was “Not Active” in each case. Also, the Ki result in series [1] and in series [3] was “Not Active” throughout. The negative logarithm of the IC50 (pIC50) is 6.18 in series [4] (read-out: IC50) and 5.53 on Acetylcholinesterase (read-out: IC50).
Take `Cc1onc(-c2ccccc2Cl)c1C(=O)N[C@@H]1C(=O)N2[C@@H]1SC(C)(C)[C@@H]2C(=O)O` [CLOXACILLIN]: the IC50 entry (in series [1]; against Substance-P receptor; in series [2]; on Endothelin-1 receptor; in series [3]; in series [4]) was “Not Active” throughout. The IC50 result on Acetylcholinesterase is “Not Active”. Besides, the Ki result in series [1] and in series [3] was “Not Active” in each case.
For `O=c1oc2ccccc2c(O)c1Cc1c(O)c2ccccc2oc1=O` [DICUMAROL], the IC50 result (in series [1]; on Substance-P receptor; in series [2]; against Endothelin-1 receptor; in series [3]; in series [4]) was “Not Active” in each case. For the same compound, the IC50 entry against Acetylcholinesterase is “Not Active”. Also, the Ki result in series [1] and in series [3] was “Not Active” in each case.
Take `CC(C)[C@@]1(NC(=O)[C@@H]2C[C@@H]3c4cccc5[nH]cc(c45)C[C@H]3N(C)C2)O[C@@]2(O)[C@@H]3CCCN3C(=O)[C@H](Cc3ccccc3)N2C1=O.CS(=O)(=O)O` [DIHYDROERGOCRISTINE MESYLATE]: the IC50 entry (in series [1]; at Substance-P receptor; in series [2]; on Endothelin-1 receptor; in series [3]; in series [4]) was “Not Active” each time. Moreover, the IC50 result on Acetylcholinesterase was “Not Active”. For the same compound, the Ki result in series [1] and in series [3] was “Not Active” throughout.
Consider `C[C@]12CC[C@@H]3c4ccc(O)cc4CC[C@H]3[C@@H]1CCC2=O` [ESTRONE], for which the IC50 result (in series [1]; at Substance-P receptor; in series [2]; on Endothelin-1 receptor; in series [3]; in series [4]) was “Not Active” each time. Further, on Acetylcholinesterase, the IC50 result is given as “Not Active”. Also, the Ki result in series [1] and in series [3] was “Not Active” each time.
For `N=C(N)NCCN1CCCCCCC1` [GUANETHIDINE], the IC50 entry (in series [1]; against Substance-P receptor; in series [2]; against Endothelin-1 receptor; in series [3]; in series [4]) was “Not Active” throughout. Besides, the IC50 result against Acetylcholinesterase is recorded as “Not Active”. The Ki result in series [1] and in series [3] was “Not Active” each time.
Consider `CCCCc1nc(Cl)c(CO)n1Cc1ccc(-c2ccccc2-c2nnn[nH]2)cc1` [LOSARTAN], for which the IC50 entry (in series [1]; against Substance-P receptor; in series [2]; against Endothelin-1 receptor; in series [3]; in series [4]) was “Not Active” in each case. Also, the IC50 result against Acetylcholinesterase is on record as “Not Active”. The Ki result in series [1] and in series [3] was “Not Active” in each case.
As to `CC1(C)S[C@@H]2[C@H](NC(=O)Cc3ccccc3)C(=O)N2[C@H]1C(=O)O` [PENICILLIN G], the IC50 result (in series [1]; against Substance-P receptor; in series [2]; on Endothelin-1 receptor; in series [3]; in series [4]) was “Not Active” each time. The IC50 result against Acetylcholinesterase is “Not Active”. Also, the Ki entry in series [1] and in series [3] was “Not Active” each time.
Regarding `CN(C)CCCN1c2ccccc2Sc2ccccc21` [PROMAZINE], in series [1], the pIC50 was 5.60. Also, in series [1], the negative-log Ki (pKi) was 5.81. Also, the IC50 result (on Substance-P receptor; in series [2]; against Endothelin-1 receptor; in series [3]; in series [4]; on Acetylcholinesterase) was “Not Active” throughout. In addition, the Ki result in series [3] is recorded as “Not Active”.
